Measured values published in ChEMBL document CHEMBL1156829 (Proc Natl Acad Sci U S A, 2008).
pEC50: −log10 of the molar value.

What was measured:
[1] = system: Plasmodium falciparum; test: NOVARTIS: Inhibition of Plasmodium falciparum 3D7 (drug-susceptible) proliferation in erythrocyte-based infection assay; type: functional, organism-based; details: Plasmodium falciparum, 3D7
[2] = system: Plasmodium falciparum; test: NOVARTIS: Inhibition of Plasmodium falciparum W2 (drug-resistant) proliferation in erythrocyte-based infection assay; type: functional, organism-based; details: Plasmodium falciparum, W2; read-out: EC50
[3] = NOVARTIS: Cytotoxicity against human hepatocellular carcinoma cell line (Huh7); type: toxicity, cell-based, Huh-7; details: Huh7 cells (hepatocellular carcinoma cell line)

| SMILES | pEC50 [1] | pEC50 [2] | CC50 [3] |
| --- | --- | --- | --- |
| S=C(NN=Cc1ccccn1)NC1CC2C=CC1C2 (stereo not given) | 7.41 | 7.35 | 44300 nM |
| CCOC(=O)c1ccc(N(C(=O)Cc2c[nH]c3ccccc23)C(C(=O)NC2CCCCC2)c2cccc(OC)c2OC)cc1 (stereo not given) | 7.27 | 6.98 | > 100000 nM |
| COc1cccc(NC(=O)Cn2c(C)c(C#N)c3ccccc32)c1 | 7.10 | 6.98 | > 100000 nM |
| N#Cc1ccc(-c2cnc(N)c(-c3ccc(C(N)=O)cc3)n2)cc1 | 7.22 | 7.00 | > 100000 nM |
| CC(C)(C)c1ccc(O)c(CNC2CCCCC2)c1 | 6.60 | 7.17 | 60100 nM |
| COc1ccc(C2=C(Nc3ccc4oc5ccccc5c4c3)c3ccccc3C2=O)cc1 | 6.85 | 7.00 | > 100000 nM |
| COC1=CC(C)=C[C@@H](C)[C@@H](O)[C@H](C)CC(C)=CC=C[C@H](OC)[C@@H](C(C)C(O)[C@H](C)[C@@]2(O)C[C@@H](O)[C@H](C)[C@@H](C(C)C)O2)OC1=O (stereo not given in full) | 5.83 | 7.95 | > 10000 nM |
| COc1cccc(CN2CCN(C(c3ccccc3)c3ccccc3)CC2)c1O | 6.47 | 7.30 | 45200 nM |
| CC(=O)Nc1cc(C(=O)Nc2ccc(C3=NCCN3)cc2)ccc1C(=O)Nc1ccc(C2=NCCN2)cc1 | 6.49 | 6.99 | > 100000 nM |
| CC(C)c1nc(N2CCN(C(=S)NCc3ccccc3)CC2)c(C#N)c2c1COC(C)(C)C2 | 6.74 | 6.95 | > 100000 nM |
| COc1ccccc1N1CCN(Cc2cc(C(C)C)c(C)cc2O)CC1 | 6.21 | 7.07 | 77400 nM |
| Cc1cc(Nc2ccc(Cl)c(Cl)c2)n2nc(C)nc2n1 | 6.91 | 6.95 | > 100000 nM |
| COc1ccc(Cn2c(C)nc3cc(NC(=O)Nc4ccccc4)c(C)nc32)cc1 | 6.43 | 6.96 | > 100000 nM |
| O=[N+]([O-])c1cccc(C(O)CNCc2ccc3c(c2)OCO3)c1 (stereo not given) | 5.99 | 6.96 | > 100000 nM |
| C=CCN1Cc2ccc(C(=O)NCc3ccccc3)cc2N=C1c1ccc(F)cc1 | < 5.90 | > 7.85 | > 12600 nM |
| CCCOC(=O)C1=C(C)NC2=C(C(=O)CC(c3ccc(OC)c(OC)c3)C2)C1c1cccc(C)c1 (stereo not given) | 7.04 | 7.44 | 32000 nM |
| COc1ccc(OC)c(C2CC(=O)C3=C(C2)NC(=O)CC3c2ccc(OC)c(OC)c2)c1 (stereo not given) | 6.21 | 6.93 | > 100000 nM |
| O=C(NCCCCNc1ccnc2cc(Cl)ccc12)c1ccccc1Cl | 6.12 | > 7.86 | > 12000 nM |
| COC1=C(Nc2cccc(C(F)(F)F)c2)C(=O)c2ccccc2C1=O | 6.58 | 6.94 | > 100000 nM |
| COc1cc(OC)c(N(C)C(=O)c2cn(C3CCCC3)c(=O)c3c2c2ccccc2n3C)cc1Cl | 7.01 | 7.26 | 47200 nM |
| CCOC(=O)C1=C(C)NC2=C(C(=O)CC(c3ccc(Cl)cc3)C2)C1c1ccc(Br)cc1 (stereo not given) | 6.42 | 6.93 | > 100000 nM |
| CCN(CC)CCNc1ccnc2ccc([N+](=O)[O-])cc12 | 7.05 | 6.94 | > 100000 nM |

| SMILES | pEC50 [1] | pEC50 [2] | CC50 [3] |
| --- | --- | --- | --- |
| COc1ccc(NC(=O)C2c3ccccc3C(=O)N(C3CCCC3)C2c2cccs2)cc1Cl (stereo not given) | 6.89 | 6.97 | > 100000 nM |
| COC(=O)C1=C(C)NC2=C(C(=O)CC(c3ccccc3Cl)C2)C1c1ccc([N+](=O)[O-])cc1 (stereo not given) | 6.94 | 6.98 | > 100000 nM |
| CCCOC(=O)C1=C(C)NC2=C(C(=O)CC(c3ccccc3)C2)C1c1ccc(Cl)cc1Cl (stereo not given) | 6.32 | 6.96 | > 100000 nM |
| CCCC(=O)NC(C(=O)N1CCN(C(c2ccccc2)c2ccccc2)CC1)C(C)C (stereo not given) | 6.41 | 7.96 | > 10000 nM |
| COc1cc(C2CC(=O)NC3=C2C(=O)CC(c2ccccc2Cl)C3)ccc1O (stereo not given) | 6.09 | 6.96 | > 100000 nM |
| COC(=O)C1=C(C)NC2=C(C(=O)CC(c3ccc(Cl)cc3)C2)C1c1ccc(F)cc1 (stereo not given) | 6.73 | 7.01 | > 100000 nM |
| Nc1nonc1-n1nnc(-c2ccccc2)c1C(=O)NN=Cc1ccc(F)c(Br)c1 | 6.47 | 6.92 | > 100000 nM |
| CCNc1nc(NC(C)CC)nc(ON=C(C)C)n1 (stereo not given) | 6.36 | 6.93 | > 100000 nM |
| COc1ccc2c(c1)-c1c(ssc1=S)C(C)(C)N2C(=O)c1ccccc1F | 6.19 | 6.93 | > 100000 nM |
| CCOC(=O)c1cccc(NC(=O)CC2C(=O)N(c3ccc(F)cc3)C(=O)N2CCC(C)C)c1 (stereo not given) | 6.70 | 7.00 | > 100000 nM |
| O=C(NCc1ccco1)c1ccc(OC2CCN(CC3CCCCC3)CC2)c(Cl)c1 | 7.02 | 7.63 | 23500 nM |
| CC(C)(C)CC(C)(C)Nc1c(-c2ccccc2OC(=O)C2CCCCC2)nc2ccccn12 | 6.46 | 8.00 | > 10000 nM |
| O=[N+]([O-])c1ccc(S(=O)(=O)N2CCN(C(=S)NCC3CCCO3)CC2)cc1 (stereo not given) | 6.87 | 7.00 | > 100000 nM |
| CCOC(=O)c1cnc2ccccc2c1Nc1ccc(OC)c(OC)c1 | 7.18 | 7.07 | 85400 nM |
| CN1CCN=C1c1ccc(NC(=O)c2ccc(C(=O)Nc3ccc(C4=NCCN4C)cc3)cc2)cc1 | 7.04 | 7.92 | > 10000 nM |
| Cc1ccn2c(NC(C)(C)CC(C)(C)C)c(-c3ccccc3OC(=O)c3cccc(Cl)c3)nc2c1 | 6.37 | 8.00 | > 10000 nM |
| C[N+](C)(CCCC(=O)c1ccc(C(=O)CCC[N+](C)(C)Cc2ccccc2Cl)cc1)Cc1ccccc1Cl | 7.67 | 6.95 | > 100000 nM |
| Cc1ccc(CN2CCc3nc(N4CCCCC4)sc3C2)s1 | 7.85 | 7.98 | > 10000 nM |
| CC(=O)N(C1=C(N2CCCCC2)C(=O)c2ccccc2C1=O)c1ccc(F)cc1 | 6.81 | 7.46 | 33300 nM |
| O=[N+]([O-])c1cc(C(F)(F)F)ccc1N1CCCN(C(=S)Nc2ccccc2)CC1 | 7.06 | 6.99 | > 100000 nM |
| CC12CCC(C(=O)N(CC(O)Cn3c4ccc(Cl)cc4c4cc(Cl)ccc43)C1=O)C2(C)C (stereo not given) | 6.93 | 6.92 | > 100000 nM |
| CCOC(=O)C1=C(C)NC2=C(C(=O)CC(c3ccc(OC)c(OC)c3)C2)C1c1ccc(Cl)c(Cl)c1 (stereo not given) | 6.64 | 6.98 | > 100000 nM |

| SMILES | pEC50 [1] | pEC50 [2] | CC50 [3] |
| --- | --- | --- | --- |
| CN(CCCNc1ccnc2cc(Cl)ccc12)C(=O)c1cc(C(F)(F)F)cc(C(F)(F)F)c1 | 7.06 | > 7.98 | > 10000 nM |
| CCN1C(=O)N(CCC(C)C)C2(CCN(Cc3cc(Cl)ccc3O)CC2)C1=O | 6.46 | 6.99 | > 100000 nM |
| CC(C)(C)CC(C)(C)Nc1c(-c2ccccc2OC(=O)c2ccc(Cl)cc2Cl)nc2ccccn12 | 6.55 | 7.99 | > 10000 nM |
| CCOC(=O)C1=C(C)NC2=C(C(=O)C(C(=O)OCC)C(c3ccccc3OC)C2)C1c1ccc([N+](=O)[O-])cc1 (stereo not given) | 6.94 | 6.99 | > 100000 nM |
| COCCNC(=S)N1CCN(S(=O)(=O)c2ccc([N+](=O)[O-])cc2)CC1 | 6.76 | 6.99 | > 100000 nM |
| Cc1ccn2c(NC(C)(C)CC(C)(C)C)c(-c3ccccc3OC(=O)CC(C)C)nc2c1 | 6.11 | > 7.94 | > 10000 nM |
| Cc1ccc(F)cc1NC(=O)c1cc(Cl)ccc1Nc1ccccc1 | 6.72 | 6.94 | > 100000 nM |
| CC(=O)Nc1ccc(NC2=C(N3CCCCC3)C(=O)c3ccccc3C2=O)cc1 | 7.28 | 6.96 | > 100000 nM |
| O=C(Cc1cccs1)N1CCOc2c(cc(-c3csc4ccccc34)cc2OCCc2ccccn2)C1 | 6.75 | 6.97 | > 100000 nM |
| Nc1cc(C(=O)Nc2cccc(C3=NCCN3)c2)ccc1C(=O)Nc1cccc(C2=NCCN2)c1 | 6.70 | 6.96 | > 100000 nM |
| O=C1C2=C(Nc3ccccc3SC2c2ccc(OCc3ccccc3)cc2)c2ccccc21 (stereo not given) | 6.32 | 6.99 | > 100000 nM |
| Cc1cccc2cc(CNC3CCOC(C)(C)C3)c(N3CCCC3)nc12 (stereo not given) | 7.67 | 7.40 | 39000 nM |
| Cc1ccn2c(NC(C)(C)CC(C)(C)C)c(-c3ccccc3OC(=O)CCC3CCCC3)nc2c1 | 5.96 | > 7.99 | > 10000 nM |
| COc1ccccc1NC(=S)N1CCN(c2ccc([N+](=O)[O-])cc2)CC1 | 6.24 | 6.95 | > 100000 nM |
| Cc1ccc(C)c(-c2csc(Nc3ccc(C)c(C)c3)n2)c1 | 6.31 | 6.94 | > 100000 nM |
| CCOc1ccccc1C1C(C#N)=C(SCC(=O)Nc2ccc(Cl)cc2)NC(C)=C1C(=O)Nc1ccccc1 (stereo not given) | 6.45 | 6.97 | > 100000 nM |
| COc1ccccc1NC(=O)N(Cc1ccccc1)C(C)c1nc2ccccc2c(=O)n1-c1cc(C)ccc1C (stereo not given) | 6.35 | > 8.16 | > 6060 nM |
| CC1OC(=O)C(C(C)C)NC(=O)C(C(C)C)OC(=O)C(C(C)C)NC(=O)C(C)OC(=O)C(C(C)C)NC(=O)C(C(C)C)OC(=O)C(C(C)C)NC(=O)C(C)OC(=O)C(C(C)C)NC(=O)C(C(C)C)OC(=O)C(C(C)C)NC1=O (stereo not given) | 7.04 | 7.93 | > 10000 nM |
| CCN1C(=S)NC2c3cc(C)ccc3OC13CCCC23 (stereo not given) | 6.78 | 6.95 | > 100000 nM |
| N#Cc1ccc(NC(=O)CCCC(=O)O)cc1 | 5.68 | > 7.97 | > 10000 nM |
| CCCCOc1ccc(NC2=C(N3CCCCC3)C(=O)c3ccccc3C2=O)cc1 | 8.01 | 7.77 | 15500 nM |
